In patent US11254690B2, “PTEFb inhibiting macrocyclic compounds” (BAYER AKTIENGESELLSCHAFT, priority 2017, dated 2022):
“And” between values parts separate entries of the source, which are not always exact repeats. Equal entries are not always repeated.

Molecular target: T1, human PTEFb (CDK9/Cyclin T1) (Homo sapiens, UniProt P50750)
T1 construct: purchased ProQinase, Freiburg, Germany
Assay: Surface Plasmon Resonance PTEFb
Format: binding
Details: SPR, 37° C.; for residence time / Target residence time: 1/koff; for residence time / koff / Target residence time / Dissociation rate constant koff: * = arithmetic means; for residence time: read-out: Target residence time; for Kd: * = arithmetic means of more than one value, read-out: Equilibrium dissociation constant KD; for koff / Dissociation rate constant koff: < = below what is resolvable; for koff: read-out: Dissociation rate constant koff
Excerpt: 8. Surface Plasmon Resonance PTEFb
The term “surface plasmon resonance”, as used herein, refers to an optical phenomenon that allows for the analysis of the reversible associations of biological molecules in real time within a biosensor matrix, for example using the Biacore® system (GE Healthcare Biosciences, Uppsala, Sweden). Biacore® uses the optical properties of surface plasmon resonance (SPR) to detect alterations in the refractive index of a buffer, which changes as molecules in solution interact with the target immobilized on the surface. In brief, proteins are covalently bound to the dextran matrix at a known concentration and a ligand for the protein is injected through the dextran matrix. Near infrared light, directed onto the opposite side of the sensor chip surface is reflected and also induces an evanescent wave in the gold film, which in turn, causes an intensity dip in the reflected light at a particular angle known as the resonance angle. If the refractive index of the sensor chip surface is altered (e.g. by compound binding to the bound protein) a shift occurs in the resonance angle. This angle shift can be measured.
The term “KD”, as used herein, is intended to refer to the equilibrium dissociation constant of a particular compound/target protein complex.
The term “koff”, as used herein, is intended to refer to the off-rate, i.e. the dissociation rate constant of a particular compound/target protein complex.
The term “target residence time”, as used herein, is intended to refer to the inverse of the rate of dissociation rate constant (1/koff) of a particular compound/target protein complex.
The ability of the compounds according to the invention to bind human PTEFb may be determined using surface plasmon resonance (SPR). KD values and koff values may be measured using a Biacore® T200 instrument (GE Healthcare, Uppsala, Sweden).
For SPR measurements, recombinant human PTEFb (CDK9/Cyclin T1 recombinant human active protein kinase purchased from ProQinase, Freiburg, Germany) is immobilized using standard amine coupling (Johnsson B et al, Anal Biochem. 1991 Nov. 1; 198(2):268-77). Briefly, carboxymethylated dextran biosensor chips (CM7, GE Healthcare) are activated with N-ethyl-N′-(3-dimethylaminopropyl)-carbodiimide hydrochloride (EDC) and N-hydroxysuccinimide (NHS) according to the supplier's instructions. Human PTEFb is diluted in 1×HBS-EP+ (GE Healthcare) and injected on the activated chip surface. Subsequently, a 1:1 solution of 1 M ethanolamine-HCl (GE Healthcare) and 1×HBS-EP is injected to block unreacted groups, resulting in approximately 4000 response units (RU) of immobilized protein. A reference surface is generated by treatment with NHS-EDC and ethanolamine-HCl. Compounds are dissolved in 100% dimethylsulfoxide (DMSO, Sigma-Aldrich, Germany) to a concentration of 10 mM and subsequently diluted in running buffer (1×HBS-EP+pH 7.4 [generated from HBS-EP+ Buffer 10× (GE Healthcare): 0.1 M HEPES, 1.5 M NaCl, 30 mM EDTA and 0.5% v/v Surfactant P20], 1% v/v DMSO). For kinetic measurements, serial dilutions of compound (0.78 nM up to 25 nM) are injected over immobilized protein. Binding kinetics is measured at 37° C. with a flow rate of 100 μl/min in running buffer. Compound concentrations are injected for 70 s followed by a dissociation time of 1100 s. The resulting sensorgrams are double-referenced against the reference surface as well as against blank injections.
The double-referenced sensorgrams are fit to a simple reversible Langmuir 1:1 reaction mechanism as implemented in the Biacore® T200 evaluation software 2.0 (GE Healthcare). In cases were full compound dissociation has not occurred at the end of the dissociation phase, the Rmax parameter (response at saturation) is fit as local variable. In all other cases, Rmax is fit as global variable.

T1 sequence (P50750 whole entry): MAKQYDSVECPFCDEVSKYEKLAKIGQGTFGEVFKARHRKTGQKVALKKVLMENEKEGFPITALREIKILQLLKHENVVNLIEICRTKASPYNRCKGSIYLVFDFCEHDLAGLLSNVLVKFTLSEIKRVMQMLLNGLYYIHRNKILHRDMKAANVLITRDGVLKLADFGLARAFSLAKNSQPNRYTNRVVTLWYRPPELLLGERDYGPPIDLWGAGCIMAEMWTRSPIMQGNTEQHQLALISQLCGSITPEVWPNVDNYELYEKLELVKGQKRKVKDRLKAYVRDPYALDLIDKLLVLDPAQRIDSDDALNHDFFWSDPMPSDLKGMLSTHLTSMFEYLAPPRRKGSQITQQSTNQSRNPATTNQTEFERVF
T1 sequence (O60563 whole entry partner): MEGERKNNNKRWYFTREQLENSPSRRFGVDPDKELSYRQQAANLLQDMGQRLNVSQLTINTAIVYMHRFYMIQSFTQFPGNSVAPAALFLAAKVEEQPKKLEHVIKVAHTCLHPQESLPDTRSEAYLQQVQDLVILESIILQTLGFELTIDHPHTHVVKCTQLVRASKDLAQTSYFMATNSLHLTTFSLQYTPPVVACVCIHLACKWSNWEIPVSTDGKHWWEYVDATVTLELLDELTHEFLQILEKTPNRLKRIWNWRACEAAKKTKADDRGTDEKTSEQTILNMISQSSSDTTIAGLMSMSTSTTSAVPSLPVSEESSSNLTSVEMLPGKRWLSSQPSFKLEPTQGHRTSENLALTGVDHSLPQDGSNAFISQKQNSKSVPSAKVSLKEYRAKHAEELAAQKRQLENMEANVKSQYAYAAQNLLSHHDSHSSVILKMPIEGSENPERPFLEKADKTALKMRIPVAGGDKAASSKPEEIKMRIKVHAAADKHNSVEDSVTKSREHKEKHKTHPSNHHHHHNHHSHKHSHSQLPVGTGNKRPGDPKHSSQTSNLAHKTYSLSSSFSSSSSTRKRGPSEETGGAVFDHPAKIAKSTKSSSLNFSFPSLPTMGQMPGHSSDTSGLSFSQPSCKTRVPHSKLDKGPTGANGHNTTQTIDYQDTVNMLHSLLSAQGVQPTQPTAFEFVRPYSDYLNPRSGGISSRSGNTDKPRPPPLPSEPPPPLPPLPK

CS(=N)(=O)Cc1cc2nc(c1)OCCCCOc1cc(ccc1F)-c1cc(ncc1F)N2 (racemic) [Example 2, (rac)-3,20-difluoro-10-[(S-methylsulfonimidoyl)methyl]-13,18-dioxa-5,7,24-triazatetracyclo[17.3.1.1^2,6.1^8,12]pentacosa-1(23),2(25),3,5,8(24),9,11,19,21-nonaene]
residence time: 75 min | Kd: 1.2 nM | koff: 0.00022 s⁻¹

CS(=N)(=O)Cc1cc2cc(c1)OCCCCOc1cc(ccc1F)-c1nc(ncc1F)N2 (racemic) [Example 4, (rac)-3,20-difluoro-10-[(S-methylsulfonimidoyl)methyl]-13,18-dioxa-5,7,25-triazatetracyclo[17.3.1.1^2,6.1^8,12]pentacosa-1(23),2(25),3,5,8(24),9,11,19,21-nonaene]
residence time: 25 min | Kd: 1.2 nM | koff: 0.00067 s⁻¹

CC1CCCOc2cc(ccc2F)-c2cc(ncc2F)Nc2cc(CS(C)(=O)=O)cc(n2)O1 (racemic) [Example 28, 3,20-difluoro-14-methyl-10-[(methylsulfonyl)methyl]-13,18-dioxa-5,7,24-triazatetracyclo[17.3.1.1^2,6.1^8,12]pentacosa-1(23),2(25),3,5,8(24),9,11,19,21-nonaene]
Kd: 0.092 nM and 0.091 nM and 0.12 nM

CC1CCCOc2cc(ccc2F)-c2cc(ncc2F)Nc2cc(CS(C)(=N)=O)cc(n2)O1 (single isomer, unassigned) [Example 16, 3,20-difluoro-14-methyl-10-[(S-methylsulfonimidoyl)methyl]-13,18-dioxa-5,7,24-triazatetracyclo[17.3.1.1^2,6.1^8,12]pentacosa-1(23),2(25),3,5,8(24),9,11,19,21-nonaene]
Target residence time: > 208 min and 131 min | Dissociation rate constant koff: < 8e-05 s⁻¹ and 0.00013 s⁻¹

CC1CCCOc2cc(ccc2F)-c2cc(ncc2F)Nc2cc(CS(C)(=N)=O)cc(n2)O1 (single isomer, unassigned) [Example 17, 3,20-difluoro-14-methyl-10-[(S-methylsulfonimidoyl)methyl]-13,18-dioxa-5,7,24-triazatetracyclo[17.3.1.1^2,6.1^8,12]pentacosa-1(23),2(25),3,5,8(24),9,11,19,21-nonaene]
residence time: > 208 min | Kd: 0.077 nM | koff: < 8e-05 s⁻¹

CC1CCCCOc2cc(ccc2F)-c2cc(ncc2F)Nc2cc(CS(C)(=N)=O)cc(n2)O1 (single isomer, unassigned) [Example 21, 3,21-difluoro-14-methyl-10-[(S-methylsulfonimidoyl)methyl]-13,19-dioxa-5,7,25-triazatetracyclo[18.3.1.1^2,6.1^8,12]hexacosa-1(24),2(26),3,5,8(25),9,11,20,22-nonaene]
Target residence time: 10* min | Kd: 1 nM | Dissociation rate constant koff: 1.6E−3* 1/s

CC1CCCCOc2cc(ccc2F)-c2cc(ncc2F)Nc2cc(CS(C)(=N)=O)cc(n2)O1 (single isomer, unassigned) [Example 22, 3,21-difluoro-14-methyl-10-[(S-methylsulfonimidoyl)methyl]-13,19-dioxa-5,7,25-triazatetracyclo[18.3.1.1^2,6.1^8,12]hexacosa-1(24),2(26),3,5,8(25),9,11,20,22-nonaene]
Target residence time: 43* min | Kd: 0.19 nM | Dissociation rate constant koff: 3.9E−4* 1/s
